ChEMBL document CHEMBL2016573, “Fluorescent nucleosides with 'on-off' switching function, pH-responsive fluorescent uridine derivatives” (Bioorg Med Chem Lett, 2012)

Key:
[1] = Dissociation constant, pKa of the compound at pH < 5; assay type: physicochemical
Huh-7 = test: Cellular uptake in human HuH7 cells at 1 uM after 2 hrs by fluorescence microscopic analysis; assay type: ADME, cell-based; conditions: huh-7, 2 h
[2] = Dissociation constant, pKa of the compound at pH 4.8 to 8.2; assay type: physicochemical
[3] = Drug uptake in human HuH7 cells assessed as localization in cytosol at 1 uM after 2 hrs by fluorescence microscopic analysis; assay type: ADME, cell-based, Huh-7

Row | SMILES | pKa [1] | Drug uptake (Huh-7) | pKa [2] | Drug uptake [3]
1 | Nc1ccc(C#Cc2c3ccccc3c(C#Cc3cn([C@H]4C[C@H](O)[C@@H](CO)O4)c(=O)[nH]c3=O)c3ccccc23)cc1 | 3.9 | – | – | –
2 | O=c1[nH]c(=O)n([C@H]2C[C@H](O)[C@@H](CO)O2)cc1C#Cc1c2ccccc2c(C#Cc2ccc(NC3CCCCC3)cc2)c2ccccc12 | 3.9 | – | – | –
3 | CC(C)(C)Nc1ccc(C#Cc2c3ccccc3c(C#Cc3cn([C@H]4C[C@H](O)[C@@H](CO)O4)c(=O)[nH]c3=O)c3ccccc23)cc1 | 6.1 | – | 6.1 | Active
4 | CN(C)c1ccc(C#Cc2c3ccccc3c(C#Cc3cn([C@H]4C[C@H](O)[C@@H](CO)O4)c(=O)[nH]c3=O)c3ccccc23)cc1 | 3 | – | – | –

Continued, values first:

Row | pKa [1] | Drug uptake (Huh-7) | pKa [2] | Drug uptake [3] | SMILES
5 | 3.7 | Not Active | – | – | CNc1ccc(C#Cc2c3ccccc3c(C#Cc3cn([C@H]4C[C@H](O)[C@@H](CO)O4)c(=O)[nH]c3=O)c3ccccc23)cc1
6 | 3.7 | – | – | – | CCC(CC)Nc1ccc(C#Cc2c3ccccc3c(C#Cc3cn([C@H]4C[C@H](O)[C@@H](CO)O4)c(=O)[nH]c3=O)c3ccccc23)cc1
7 | 3.5 | – | – | – | CCCCNc1ccc(C#Cc2c3ccccc3c(C#Cc3cn([C@H]4C[C@H](O)[C@@H](CO)O4)c(=O)[nH]c3=O)c3ccccc23)cc1
